Laboratory results as given in patent US20130195866A1, “METHODS TO INHIBIT NEURODEGENERATION” (priority 2010, published 2013).
Ends that are not written are not given here.

How the values were obtained:
C57BL/6J mice = test: Neuronal morphology in intact brain of C57BL/6J mice after intracranial AAV injection; assay type: in vivo, mouse; conditions: live multiphoton imaging, compared with control vector
Protocol: Intracortical injections and surgery were performed as described previously (Spires et al., 2005; Kuchibhotla et al., 2008; Meyer-Luehmann et al., 2008). Briefly, mice were anesthetized with ketamine (10 mg/kg) and xylazine (1 mg/kg) and placed in a stereotaxic apparatus. The surgical site was sterilized with betadyne and isopropyl alcohol, and a 2-3 mm incision was made in the scalp along the midline between the ears. Burr holes were drilled in the skull, 0.5 mm posterior from bregma, and 0.5 mm lateral to the midsagittal line. Using a Hamilton syringe, 3 μl of virus (titer, 4.2×10^12 viral genomes/ml) was injected 1.2 mm deep in somatosensory cortex at a rate of 0.25 μl/min. After one injection in each burr hole, the scalp was sutured, and the mouse recovered from anesthesia on a heating pad.
Images of GFP-filled neuronal processes and, in the case of APP/PS1 mice, amyloid pathology, and blood vessels were obtained using a Bio-Rad 1024ES multiphoton microscope (Bio-Rad), mounted on an Olympus Optical BX50WI upright microscope. […] A mode-locked titanium/sapphire laser (MaiTai; Spectra Physics) generated two-photon fluorescence with 800 nm excitation, and detectors containing three photomultiplier tubes (Hamamatsu) collected emitted light in the range of 380-480, 500-540, and 560-650 nm (Bacskai et al., 2003). […]

NFAT [1] = test: NFAT luciferase reporter assay in cultured neurons; assay type: cell-based, mouse; conditions: neurons overexpressing CaNCA, with or without AAV-flag-AKAP79, 24 h
Protocol: Luciferase reporter assay. CaNwt, CaNCA, or NFAT-TA-Luc (Clontech) was subcloned into AAV serotype 2 vector. These plasmids (1 μg) were used […] at 3 DIV. After 24 h, the cells were harvested and luciferase activities were measured with a luminometer using a reagent kit (Luciferase Assay System with Reporter Lysis Buffer; Promega). The background luciferase activity was subtracted from all experiments.
(§1) To examine whether CaN activation is sufficient to cause these morphologic changes, even in the absence of overexpressed APP or exogenously applied Aβ, it was sought to investigate whether the expression of a constitutively-active CaN (CaNCA) can favor morphological changes in wild-type cultured neurons. An AAV vector encoding an HA-tagged CaNCA (AAV-CaNCA) or wild-type CaN (AAV-CaNwt) or an AAV vector control was expressed in cortical cultures. […] Neurons with swollen dendrites were barely detectable in CaNwt-overexpressing cultures, but they were prominently detected in CaNCA-overexpressing cultures (FIG. 10B). […] The latter is similar to the number of dystrophic neurites found in cultures expressing β-galactosidase, an AAV-vector control. Dendritic complexity (FIGS. 10D and 10E) and mean spine density (FIGS. 10F and 100) were reduced in neurons overexpressing CaNCA but not in CaNwt- or vector-overexpressing neurons.

[2] = test system: wild-type cultured neurons; test: CaNCA overexpression-induced abnormal morphology in wild-type cultured neurons; assay type: cell-based, mouse; conditions: for spine density: 15 DIV primary neurons transfected with wtCaN+GFP or CaNCA+GFP (DMSO or VIVIT in medium) or CaNCA+GFP+AKAP79; for GFP-positive neurons with local neuritic dystrophies: of total GFP-positive neurons
Protocol: FIGS. 10A to 10H show wild-type cultured neurons overexpressing a constitutively active CaN construct, CaNCA, develop abnormal morphology that is a phenocopy of the AD effect. […] Wild-type cultured neurons were infected with AAV-CaNwt or AAV-CaNCA with or without AAV-flag-AKAP79 for twenty-four hours, and then the cell extracts were assayed for luciferase activity. The symbol “*” indicates a p-value of less than 0.05; Data are mean±SD (n=3 experiments each). FIGS. 10B to 10G show images and quantification results of neurodegenerative morphologies observed in wild-type cultured neurons overexpressing CaNCA or a vector. Overexpression of CaNCA, but not CaNwt or vector control, into wild-type cultures induces dendritic dystrophies (FIGS. 10B and 10C; arrows in FIG. 10B indicated local swelling of dendrites), simplification of dendritic arborization (FIGS. 10D and 10E), and spine loss (FIGS. 10F and 10G). […] The symbol “*” indicates a p-value of less than 0.05; The symbol “*” in FIG. 10E indicates a p-value of less than 0.05 (CaNwt vs CaNCA). Data are mean±SD from three independent experiments, each in triplicate. […] Neurons were transfected at 10DIV and analyzed at 14DIV. A decreased spines density spines is observed when CaCA is overexpressed (15.2±1.1) compared with wtCaN (25.9±2.1). This effect was blocked by cotransfection with AKAP79 (25.6±1.0) or by the addition of VIVIT (SEQ ID NO: 7) in the medium (22±1.7). The symbol “**” indicates a p-value of less than 0.001 (ANOVA) and less than 0.05 (post-hoc Student's test). n≧15.
as §1

NFATc4 = NFATc4 nuclear translocation (nucleus/cytoplasm ratio) induced by TgCM in wild-type cultured neurons; assay type: cell-based, mouse; conditions: wild-type neurons treated with TgCM for 24 h; VIVIT 2 μM
Protocol: Immunocytochemistry was performed as described previously in Wu et al. (2004). Briefly, after being treated under different experimental conditions, cells were fixed with 4% paraformaldehyde in PBS, pH 7.4, for 15 min and were then membrane permeabilized with 0.5% Triton X-100 in PBS for 5 min. After blocking with 3% bovine serum albumin at 37° C. for 1 h, cells were incubated with primary antibodies: anti-microtubule-associated protein 2 (MAP2) antibody (1: 200; Sigma), or anti-NFATc4 antibody (1:200; Santa Cruz Biotechnology), anti-HA antibody (1:200; Invitrogen), or anti-Flag antibody (1:200; Sigma), at 4° C. overnight. […] Nuclear NFATc4 staining was determined by overlap of NFATc4 staining with Hoechst nuclear staining. […]
Soluble plaque-associated bioactive molecules, possibly assemblies of Aβ, may be responsible for the “halo” effect of neuritic change and [Ca^2+]i alterations near plaques (Kuchibhotla et al., 2008; Meyer-Luehmann et al., 2008; Koffie et al., 2009). […] (NFATc4 and MAP2 images used for quantification of nucleus/cytoplasm ratio of NFATc4 are not shown.) To better characterize the specific role of Aβ oligomers in CaN-mediated NFATc4 activation, nondenaturing size exclusion chromatography (SEC) was used to isolate the various Aβ species from TgCM. […]

Tg2576 neurons = test: APP overexpression-induced morphological abnormalities in Tg cultures at 21 DIV; assay type: cell-based, mouse
calcineurin = conditions: Macian 2005; cited from earlier work
[3] = test system: wild-type cultured neurons growing in TgCM; test: TgCM-induced morphological abnormalities in wild-type cultured neurons; assay type: cell-based, mouse
NFAT [4] = conditions: in vitro; Macian 2005; cited from earlier work
wild-type neurons = test: Baseline maturation of wild-type neurons; assay type: cell-based, mouse; conditions: VIVIT 2 μM or DMSO
Source text: The findings presented herein indicate that nuclear accumulation of NFATc4 occurs in neurons from Tg cultures and in human AD postmortem brain and that Aβ-containing CM from Tg culture is capable of inducing CaN-mediated NFATc4 nuclear localization in wild-type neurons. […] Thus, inhibition of CaN-NFAT interaction and subsequent NFAT nuclear accumulation by VIVIT (SEQ ID NO: 7) blocks TgCM or APP overexpression-induced morphological abnormalities in culture.

[5] = Tg cultures at 21 DIV, compared with wild type
[6] = wild-type neurons growing in TgCM, VIVIT 2 μM

CaNCA: constitutively active truncated 45 kDa form of mouse CaN (amino acid residues 1-399), expressed from an AAV vector
spine density (C57BL/6J mice): significantly decreased | NFAT-luciferase activity (NFAT [1]): significantly increased | spine density [2]: 15.2±1.1 | GFP-positive neurons with local neuritic dystrophies [2]: Approximately 15%

CaNwt: wild type mouse CaN expressed from an AAV vector
spine density (C57BL/6J mice): comparable with control vector-injected mice | spine density [2]: 25.9±2.1 | GFP-positive neurons with local neuritic dystrophies [2]: 6%

VIVIT: cell-permeable VIVIT peptide that blocks the docking sites for CaN-NFAT interaction (catalog #480401; Calbiochem) (also: 11R cell-penetrating tag, position and linkage not given here)
nucleus/cytoplasm ratio of NFATc4 (NFATc4): abolished | dendritic complexity / dendritic attenuation (Tg2576 neurons; [5]): prevented | mean spine density / spine loss (Tg2576 neurons; [5]): prevented | number of neurons with dendritic dystrophies (Tg2576 neurons; [5]): prevented | overall morphology during maturation (Tg2576 neurons; Tg neurons, treatment from 3 DIV (3D6, AKAP79) or VIVIT vs DMSO): dramatically improved morphology | competition for calcineurin binding (calcineurin): compete with NFAT proteins for calcineurin binding | spine density [2]: 22±1.7 | CaNCA overexpression-induced dendritic spine loss ([2]; wild-type cultured neurons overexpressing CaNCA): virtually eliminate | spine density ([3]; primary neurons treated with TgCM for 24 h, 1 μM FK506, 2 μM VIVIT or AKAP79 transfection (FIG. 8I)): restored | dendritic complexity (Sholl analysis) [3, 6]: increased dendritic complexity | dendritic spine density [3, 6]: increased | number of neurons with dendritic dystrophies [3, 6]: reduced numbers of neurons with dendritic dystrophies | NFAT dephosphorylation (NFAT [4]): block NFAT dephosphorylation | number of neurons with dendritic dystrophies, dendritic processes and spine density (wild-type neurons): No significant changes
